Key:
[1] = molecular target: 5-hydroxytryptamine receptor 1B (Homo sapiens, UniProt P28222)
D(1A) dopamine receptor = D(1A) dopamine receptor (Homo sapiens, UniProt P21728)
[2] = molecular target: 5-hydroxytryptamine receptor 7 (Homo sapiens, UniProt P34969)
[3] = molecular target: T1, Adrenergic receptor alpha-1 (Homo sapiens, UniProt P35348+P25100+P35368); format: protein assay
T1 sequence (P35348 whole entry): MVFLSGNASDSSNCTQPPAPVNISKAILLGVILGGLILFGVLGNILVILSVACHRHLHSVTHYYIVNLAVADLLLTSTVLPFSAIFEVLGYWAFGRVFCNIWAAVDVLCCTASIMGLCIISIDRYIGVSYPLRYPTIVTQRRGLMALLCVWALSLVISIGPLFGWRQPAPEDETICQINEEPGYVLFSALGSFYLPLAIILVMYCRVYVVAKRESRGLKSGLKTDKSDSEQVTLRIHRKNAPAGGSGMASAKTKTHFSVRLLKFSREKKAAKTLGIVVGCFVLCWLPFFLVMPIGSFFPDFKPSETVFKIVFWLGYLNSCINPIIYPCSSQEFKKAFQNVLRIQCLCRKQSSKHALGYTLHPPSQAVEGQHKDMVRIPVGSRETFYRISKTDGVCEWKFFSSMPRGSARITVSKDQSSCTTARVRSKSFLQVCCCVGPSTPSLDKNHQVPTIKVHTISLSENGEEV
T1 sequence (P25100 whole entry): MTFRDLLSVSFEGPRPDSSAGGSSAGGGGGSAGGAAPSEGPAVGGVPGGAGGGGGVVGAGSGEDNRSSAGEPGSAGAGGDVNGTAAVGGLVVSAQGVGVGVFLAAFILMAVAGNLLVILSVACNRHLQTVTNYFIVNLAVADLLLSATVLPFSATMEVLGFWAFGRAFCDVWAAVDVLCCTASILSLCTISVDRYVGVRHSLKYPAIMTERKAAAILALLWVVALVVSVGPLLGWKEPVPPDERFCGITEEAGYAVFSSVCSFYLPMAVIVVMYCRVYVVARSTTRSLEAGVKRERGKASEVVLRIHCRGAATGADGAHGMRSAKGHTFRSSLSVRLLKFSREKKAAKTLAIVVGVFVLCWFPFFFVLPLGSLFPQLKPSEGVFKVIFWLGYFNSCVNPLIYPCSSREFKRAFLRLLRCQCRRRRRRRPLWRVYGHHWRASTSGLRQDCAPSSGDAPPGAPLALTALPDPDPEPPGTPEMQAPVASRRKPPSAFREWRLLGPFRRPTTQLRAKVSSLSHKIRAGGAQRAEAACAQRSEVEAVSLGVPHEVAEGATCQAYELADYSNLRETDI
T1 sequence (P35368 whole entry): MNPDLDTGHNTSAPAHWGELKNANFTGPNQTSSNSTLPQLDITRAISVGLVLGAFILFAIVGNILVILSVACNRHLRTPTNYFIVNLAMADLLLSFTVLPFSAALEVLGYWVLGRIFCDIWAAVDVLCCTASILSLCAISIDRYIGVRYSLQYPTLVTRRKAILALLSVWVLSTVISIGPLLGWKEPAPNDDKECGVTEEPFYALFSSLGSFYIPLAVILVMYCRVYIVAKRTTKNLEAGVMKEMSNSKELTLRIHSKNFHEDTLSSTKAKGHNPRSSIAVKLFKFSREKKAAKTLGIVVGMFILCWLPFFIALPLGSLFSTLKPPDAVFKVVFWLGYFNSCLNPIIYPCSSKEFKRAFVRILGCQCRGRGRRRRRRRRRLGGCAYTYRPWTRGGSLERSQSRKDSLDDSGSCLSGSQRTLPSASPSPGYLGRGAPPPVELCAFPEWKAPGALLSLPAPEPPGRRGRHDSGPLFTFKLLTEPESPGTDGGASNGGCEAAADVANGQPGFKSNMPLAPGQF

[4] = molecular target: Sodium-dependent noradrenaline transporter (Homo sapiens, UniProt P23975)
Sodium-dependent noradrenaline transporter, sequence (P23975 whole entry): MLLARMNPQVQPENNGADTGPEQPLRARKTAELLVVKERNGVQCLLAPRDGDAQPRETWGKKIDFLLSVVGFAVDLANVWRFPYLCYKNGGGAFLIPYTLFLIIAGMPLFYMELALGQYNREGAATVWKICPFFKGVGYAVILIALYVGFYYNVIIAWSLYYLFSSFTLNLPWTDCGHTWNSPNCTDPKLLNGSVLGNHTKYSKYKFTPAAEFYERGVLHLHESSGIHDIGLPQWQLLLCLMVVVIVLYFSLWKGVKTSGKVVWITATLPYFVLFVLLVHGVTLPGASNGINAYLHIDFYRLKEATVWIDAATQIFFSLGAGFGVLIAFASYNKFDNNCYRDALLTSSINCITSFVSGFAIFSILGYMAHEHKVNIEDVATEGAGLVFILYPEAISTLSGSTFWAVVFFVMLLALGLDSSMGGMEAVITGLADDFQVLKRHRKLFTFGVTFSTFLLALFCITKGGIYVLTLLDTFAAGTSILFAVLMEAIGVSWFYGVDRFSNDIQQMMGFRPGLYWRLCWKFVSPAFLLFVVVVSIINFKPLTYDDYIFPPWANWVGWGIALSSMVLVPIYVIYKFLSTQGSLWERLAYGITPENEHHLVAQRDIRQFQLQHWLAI

[5] = molecular target: Voltage-gated L-type calcium channel (Homo sapiens, UniProt Q13936+Q13698+Q01668+O60840); format: protein assay
Vasopressin V1a receptor = Vasopressin V1a receptor (Homo sapiens, UniProt P37288)
Vasopressin V1a receptor, sequence (P37288 whole entry): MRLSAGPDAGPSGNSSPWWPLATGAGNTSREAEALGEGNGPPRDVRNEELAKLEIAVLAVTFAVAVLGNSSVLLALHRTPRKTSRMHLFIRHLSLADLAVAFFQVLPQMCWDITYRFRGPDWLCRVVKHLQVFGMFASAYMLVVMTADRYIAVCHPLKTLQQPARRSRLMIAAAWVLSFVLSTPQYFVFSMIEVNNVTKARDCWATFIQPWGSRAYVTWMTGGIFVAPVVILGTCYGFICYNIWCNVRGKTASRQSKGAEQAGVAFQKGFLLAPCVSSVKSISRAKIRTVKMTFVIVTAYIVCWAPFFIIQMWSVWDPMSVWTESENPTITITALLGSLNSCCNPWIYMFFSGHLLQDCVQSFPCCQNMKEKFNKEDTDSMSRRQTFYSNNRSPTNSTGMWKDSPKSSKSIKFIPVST

D(1A) dopamine receptor, sequence (P21728 whole entry): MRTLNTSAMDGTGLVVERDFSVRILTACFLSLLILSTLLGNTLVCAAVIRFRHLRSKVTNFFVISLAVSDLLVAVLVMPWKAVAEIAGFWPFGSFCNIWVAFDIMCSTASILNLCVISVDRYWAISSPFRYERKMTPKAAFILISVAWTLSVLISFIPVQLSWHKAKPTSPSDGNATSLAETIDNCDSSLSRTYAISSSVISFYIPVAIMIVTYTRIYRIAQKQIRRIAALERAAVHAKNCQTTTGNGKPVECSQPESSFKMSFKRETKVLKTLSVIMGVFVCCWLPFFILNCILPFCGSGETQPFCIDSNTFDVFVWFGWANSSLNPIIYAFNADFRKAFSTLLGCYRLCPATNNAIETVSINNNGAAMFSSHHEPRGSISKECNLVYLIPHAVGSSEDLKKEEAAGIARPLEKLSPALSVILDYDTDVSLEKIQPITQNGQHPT
5-hydroxytryptamine receptor 7, sequence (P34969 whole entry): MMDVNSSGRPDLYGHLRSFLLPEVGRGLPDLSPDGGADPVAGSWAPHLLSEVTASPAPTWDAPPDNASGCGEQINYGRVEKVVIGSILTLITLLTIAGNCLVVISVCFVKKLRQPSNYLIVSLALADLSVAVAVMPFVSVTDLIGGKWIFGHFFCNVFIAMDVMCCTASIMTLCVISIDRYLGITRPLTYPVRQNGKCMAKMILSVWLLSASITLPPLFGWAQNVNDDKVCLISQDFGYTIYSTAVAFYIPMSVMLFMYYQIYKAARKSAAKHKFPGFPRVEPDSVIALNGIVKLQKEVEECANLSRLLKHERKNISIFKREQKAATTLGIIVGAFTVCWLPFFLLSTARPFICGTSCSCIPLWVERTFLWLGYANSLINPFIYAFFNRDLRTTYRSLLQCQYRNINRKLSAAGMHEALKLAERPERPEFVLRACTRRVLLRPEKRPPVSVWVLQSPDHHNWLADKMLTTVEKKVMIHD
5-hydroxytryptamine receptor 1B, sequence (P28222 whole entry): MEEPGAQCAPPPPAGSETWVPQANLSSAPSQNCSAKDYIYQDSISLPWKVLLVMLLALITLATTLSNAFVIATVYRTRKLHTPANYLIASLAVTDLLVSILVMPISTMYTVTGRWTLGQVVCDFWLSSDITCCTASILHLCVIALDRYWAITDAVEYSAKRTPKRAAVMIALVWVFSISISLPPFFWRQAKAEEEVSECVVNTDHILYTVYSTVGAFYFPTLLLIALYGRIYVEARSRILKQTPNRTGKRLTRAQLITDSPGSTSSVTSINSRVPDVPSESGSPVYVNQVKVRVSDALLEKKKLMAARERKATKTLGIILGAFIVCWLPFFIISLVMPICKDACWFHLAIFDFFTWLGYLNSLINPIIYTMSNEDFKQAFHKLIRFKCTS

`N#Cc1ccc(CCOC(=O)NC2CCN(CCCC(c3ccc(F)cc3)c3ccc(F)cc3)CC2)cc1` showed an IC50 [1] of 3.58 µM, an IC50 (D(1A) dopamine receptor) of 0.376 µM and an IC50 [2] of 0.998 µM. The IC50 [3] was 0.417 µM, the IC50 [4] was 1.14 µM and the IC50 [5] was 0.284 µM. The IC50 (Vasopressin V1a receptor) was 3.65 µM.
